The source of these data is patent US20050042180A1, “Powder formulation containing the CGRP antagonist 1 [N2-[3,5-dibromo-N-[[4-(3,4-dihydro-2 (1H)-oxoquinazolin-3-yl)-1-piperidinyl]carbonyl]-D-tyrosyl]-L-lysyl]-4-(4-pyridinyl)-piperazin, process for preparing and the use thereof as inhalation powder” (Boehringer Ingelheim International GmbH, priority 2003, published 2005).

Series [1] is described as follows: Bioavailability after administration by inhalation as powder inhalant. The following applies: in vivo, inhaled or intranasal; administered by inhalation as powder inhalant; based on the fine content of the formulation (FPD, USP 24 Suppl. 2000).
For series [2] the following is noted: conventional formulations; cited from earlier work.

Turning to `NCCCC[C@H](NC(=O)[C@@H](Cc1cc(Br)c(O)c(Br)c1)NC(=O)N1CCC(N2Cc3ccccc3NC2=O)CC1)C(=O)N1CCN(c2ccncc2)CC1` [A, 1-[N^2-[3,5-dibromo-N-[[4-(3,4-dihydro-2(1H)-oxoquinazolin-3-yl)-1-piperidinyl]carbonyl]-D-tyrosyl]-L-lysyl]-4-(4-pyridinyl)-piperazine], in series [1], the bioavailability (in general, the share of a dose that reaches the circulation, judged against a reference dose that is usually intravenous) is roughly 60%. Also, the oral bioavailability result in series [2] is “very limited”.
